Laboratory results published in the kinase profiling compilation of Christmann-Franck et al. (2016).
Where “and” joins values, the source holds several entries; their conditions need not be identical. Identical values can stand only once.

Tests used:
Experiment in all cases: Caliper, Mobility shift assay off-chip
[1] = molecular target: PAK1 (human) (UniProt Q13153)
[2] = molecular target: EPHA4 (human) (UniProt P54764)
[3] = molecular target: MAP4K2 (human) (UniProt Q12851)
[4] = molecular target: CDK7 (human) (UniProt P50613)
[5] = molecular target: ABL2 (human) (UniProt P42684)
[6] = molecular target: PDGFRA (human) (UniProt P16234)
[7] = molecular target: RPS6KA2 KD1 KD2 (human) (UniProt Q15349)
[8] = molecular target: TAOK2 (human) (UniProt Q9UL54)
[9] = molecular target: CDK2 (human) (UniProt P24941)
[10] = molecular target: CSNK2A1 (human) (UniProt P68400)
[11] = molecular target: INSRR (human) (UniProt P14616)
[12] = molecular target: FYN (human) (UniProt P06241)
[13] = molecular target: LYN (human) (UniProt P07948)
[14] = molecular target: IRAK1 (human) (UniProt P51617)
[15] = molecular target: SIK2 (human) (UniProt Q9H0K1)
[16] = molecular target: KIT (human) (UniProt P10721)
[17] = molecular target: CLK1 (human) (UniProt P49759)
[18] = molecular target: TSSK2 (human) (UniProt Q96PF2)
[19] = molecular target: TNK1 (human) (UniProt Q13470)
[20] = molecular target: CSK (human) (UniProt P41240)
[21] = molecular target: PBK (human) (UniProt Q96KB5)
[22] = molecular target: MAPKAPK2 (human) (UniProt P49137)
[23] = molecular target: TNK2 (human) (UniProt Q07912)
[24] = molecular target: PLK1 (human) (UniProt P53350)
[25] = molecular target: CDK9 (human) (UniProt P50750)
[26] = molecular target: TNIK (human) (UniProt Q9UKE5)
[27] = molecular target: IKBKE (human) (UniProt Q14164)
[28] = molecular target: PAK4 (human) (UniProt O96013)
[29] = molecular target: PAK2 (human) (UniProt Q13177)
[30] = molecular target: PRKAA1 (human) (UniProt Q13131)
[31] = molecular target: NIM1 (human) (UniProt Q8IY84)
[32] = molecular target: PDGFRB (human) (UniProt P09619)
[33] = molecular target: PIK3CA PIK3R1 (human) (UniProt P27986+P42336)

Sequence of IRAK1 (human) (P51617 whole entry, looked up): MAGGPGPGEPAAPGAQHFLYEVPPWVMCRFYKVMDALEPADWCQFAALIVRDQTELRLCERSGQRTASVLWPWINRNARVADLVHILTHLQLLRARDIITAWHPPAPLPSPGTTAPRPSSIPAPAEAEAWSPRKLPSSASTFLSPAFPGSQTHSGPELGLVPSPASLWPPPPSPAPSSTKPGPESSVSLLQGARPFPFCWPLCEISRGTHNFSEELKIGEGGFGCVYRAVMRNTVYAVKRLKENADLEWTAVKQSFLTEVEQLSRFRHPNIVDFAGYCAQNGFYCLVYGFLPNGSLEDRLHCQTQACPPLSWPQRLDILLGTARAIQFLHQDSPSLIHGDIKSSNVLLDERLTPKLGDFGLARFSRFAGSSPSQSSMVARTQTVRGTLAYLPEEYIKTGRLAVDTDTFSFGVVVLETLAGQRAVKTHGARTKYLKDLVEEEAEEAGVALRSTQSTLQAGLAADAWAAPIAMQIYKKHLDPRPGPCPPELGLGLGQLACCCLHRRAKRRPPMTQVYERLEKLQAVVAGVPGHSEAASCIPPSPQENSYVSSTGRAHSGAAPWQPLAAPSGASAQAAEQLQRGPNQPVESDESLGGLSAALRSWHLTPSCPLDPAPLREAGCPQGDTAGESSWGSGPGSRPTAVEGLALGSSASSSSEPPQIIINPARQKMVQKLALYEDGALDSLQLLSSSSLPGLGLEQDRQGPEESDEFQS
Sequence of RPS6KA2 KD1 KD2 (human) (Q15349 whole entry, looked up): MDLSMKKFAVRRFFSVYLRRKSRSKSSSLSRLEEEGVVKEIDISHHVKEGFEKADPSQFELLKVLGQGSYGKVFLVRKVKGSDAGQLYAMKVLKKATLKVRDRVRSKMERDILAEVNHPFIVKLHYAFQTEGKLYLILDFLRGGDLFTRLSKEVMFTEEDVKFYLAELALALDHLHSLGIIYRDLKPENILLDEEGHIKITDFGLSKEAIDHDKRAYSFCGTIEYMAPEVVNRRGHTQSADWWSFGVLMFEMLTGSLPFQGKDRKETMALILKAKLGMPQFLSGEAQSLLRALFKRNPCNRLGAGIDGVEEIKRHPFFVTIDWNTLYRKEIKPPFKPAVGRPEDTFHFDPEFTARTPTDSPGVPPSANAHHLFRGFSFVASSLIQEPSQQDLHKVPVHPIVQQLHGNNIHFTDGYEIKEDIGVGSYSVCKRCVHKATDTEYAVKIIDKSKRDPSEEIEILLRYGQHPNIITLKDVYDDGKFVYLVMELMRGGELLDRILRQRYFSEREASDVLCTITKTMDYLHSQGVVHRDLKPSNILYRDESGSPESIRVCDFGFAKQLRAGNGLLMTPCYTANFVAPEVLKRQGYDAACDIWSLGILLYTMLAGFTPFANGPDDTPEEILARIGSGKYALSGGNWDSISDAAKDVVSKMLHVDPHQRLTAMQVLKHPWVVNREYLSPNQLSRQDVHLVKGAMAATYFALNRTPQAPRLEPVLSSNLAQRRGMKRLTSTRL
Sequence of CLK1 (human) (P49759 whole entry, looked up): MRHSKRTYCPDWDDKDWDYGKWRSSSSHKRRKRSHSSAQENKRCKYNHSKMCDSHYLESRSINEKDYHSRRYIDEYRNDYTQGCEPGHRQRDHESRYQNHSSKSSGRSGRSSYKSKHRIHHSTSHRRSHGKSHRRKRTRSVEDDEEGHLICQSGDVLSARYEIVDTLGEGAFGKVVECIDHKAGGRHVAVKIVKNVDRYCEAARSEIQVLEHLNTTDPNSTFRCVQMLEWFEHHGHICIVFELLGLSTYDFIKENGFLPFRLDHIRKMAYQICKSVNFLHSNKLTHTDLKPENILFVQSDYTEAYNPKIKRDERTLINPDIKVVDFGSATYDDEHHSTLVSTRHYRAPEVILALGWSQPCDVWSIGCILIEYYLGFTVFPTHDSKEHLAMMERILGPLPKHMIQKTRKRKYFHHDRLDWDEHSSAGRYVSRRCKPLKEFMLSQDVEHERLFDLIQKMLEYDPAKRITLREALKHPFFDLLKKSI
Sequence of PAK4 (human) (O96013 whole entry, looked up): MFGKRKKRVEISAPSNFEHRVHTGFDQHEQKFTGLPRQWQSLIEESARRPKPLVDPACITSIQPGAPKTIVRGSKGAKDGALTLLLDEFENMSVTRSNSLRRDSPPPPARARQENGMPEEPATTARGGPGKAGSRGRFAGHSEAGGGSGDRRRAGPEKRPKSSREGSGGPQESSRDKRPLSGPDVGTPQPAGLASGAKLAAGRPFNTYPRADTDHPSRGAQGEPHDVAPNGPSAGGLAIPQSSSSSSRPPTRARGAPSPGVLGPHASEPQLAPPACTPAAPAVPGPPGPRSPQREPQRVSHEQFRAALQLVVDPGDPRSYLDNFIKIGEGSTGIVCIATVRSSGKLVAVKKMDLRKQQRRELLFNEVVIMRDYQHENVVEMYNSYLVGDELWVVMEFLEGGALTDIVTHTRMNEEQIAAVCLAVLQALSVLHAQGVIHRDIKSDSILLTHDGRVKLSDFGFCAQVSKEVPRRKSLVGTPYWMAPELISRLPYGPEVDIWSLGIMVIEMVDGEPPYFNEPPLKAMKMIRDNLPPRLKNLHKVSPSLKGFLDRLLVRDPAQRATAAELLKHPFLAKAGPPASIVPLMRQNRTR
Sequence of PAK2 (human) (Q13177 whole entry, looked up): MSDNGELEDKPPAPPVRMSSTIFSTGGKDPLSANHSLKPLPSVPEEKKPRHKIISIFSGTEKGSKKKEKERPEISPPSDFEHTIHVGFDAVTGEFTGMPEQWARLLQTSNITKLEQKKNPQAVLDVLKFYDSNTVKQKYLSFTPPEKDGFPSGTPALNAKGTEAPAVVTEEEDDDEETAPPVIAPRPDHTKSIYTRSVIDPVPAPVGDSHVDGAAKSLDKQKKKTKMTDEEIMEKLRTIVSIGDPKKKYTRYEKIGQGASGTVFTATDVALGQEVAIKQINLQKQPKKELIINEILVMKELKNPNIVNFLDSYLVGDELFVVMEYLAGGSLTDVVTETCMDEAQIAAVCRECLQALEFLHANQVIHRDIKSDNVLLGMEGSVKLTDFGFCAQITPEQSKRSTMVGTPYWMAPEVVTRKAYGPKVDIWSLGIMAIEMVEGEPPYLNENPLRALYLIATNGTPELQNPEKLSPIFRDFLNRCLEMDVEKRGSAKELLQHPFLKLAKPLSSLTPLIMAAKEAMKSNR
Sequence of LYN (human) (P07948 whole entry, looked up): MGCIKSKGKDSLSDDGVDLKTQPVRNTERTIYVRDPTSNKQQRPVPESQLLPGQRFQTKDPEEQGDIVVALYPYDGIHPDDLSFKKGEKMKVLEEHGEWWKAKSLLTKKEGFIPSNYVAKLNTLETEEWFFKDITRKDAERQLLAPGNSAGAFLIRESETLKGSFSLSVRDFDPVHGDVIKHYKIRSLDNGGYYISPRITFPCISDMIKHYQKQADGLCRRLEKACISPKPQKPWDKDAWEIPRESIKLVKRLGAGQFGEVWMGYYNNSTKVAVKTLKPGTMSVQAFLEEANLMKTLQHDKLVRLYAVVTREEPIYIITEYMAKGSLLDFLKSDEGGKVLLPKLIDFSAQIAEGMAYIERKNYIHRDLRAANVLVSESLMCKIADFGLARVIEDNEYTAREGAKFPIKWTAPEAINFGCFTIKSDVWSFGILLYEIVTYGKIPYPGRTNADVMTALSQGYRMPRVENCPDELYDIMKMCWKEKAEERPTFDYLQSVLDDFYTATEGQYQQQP
Sequence of TNK2 (human) (Q07912 whole entry, looked up): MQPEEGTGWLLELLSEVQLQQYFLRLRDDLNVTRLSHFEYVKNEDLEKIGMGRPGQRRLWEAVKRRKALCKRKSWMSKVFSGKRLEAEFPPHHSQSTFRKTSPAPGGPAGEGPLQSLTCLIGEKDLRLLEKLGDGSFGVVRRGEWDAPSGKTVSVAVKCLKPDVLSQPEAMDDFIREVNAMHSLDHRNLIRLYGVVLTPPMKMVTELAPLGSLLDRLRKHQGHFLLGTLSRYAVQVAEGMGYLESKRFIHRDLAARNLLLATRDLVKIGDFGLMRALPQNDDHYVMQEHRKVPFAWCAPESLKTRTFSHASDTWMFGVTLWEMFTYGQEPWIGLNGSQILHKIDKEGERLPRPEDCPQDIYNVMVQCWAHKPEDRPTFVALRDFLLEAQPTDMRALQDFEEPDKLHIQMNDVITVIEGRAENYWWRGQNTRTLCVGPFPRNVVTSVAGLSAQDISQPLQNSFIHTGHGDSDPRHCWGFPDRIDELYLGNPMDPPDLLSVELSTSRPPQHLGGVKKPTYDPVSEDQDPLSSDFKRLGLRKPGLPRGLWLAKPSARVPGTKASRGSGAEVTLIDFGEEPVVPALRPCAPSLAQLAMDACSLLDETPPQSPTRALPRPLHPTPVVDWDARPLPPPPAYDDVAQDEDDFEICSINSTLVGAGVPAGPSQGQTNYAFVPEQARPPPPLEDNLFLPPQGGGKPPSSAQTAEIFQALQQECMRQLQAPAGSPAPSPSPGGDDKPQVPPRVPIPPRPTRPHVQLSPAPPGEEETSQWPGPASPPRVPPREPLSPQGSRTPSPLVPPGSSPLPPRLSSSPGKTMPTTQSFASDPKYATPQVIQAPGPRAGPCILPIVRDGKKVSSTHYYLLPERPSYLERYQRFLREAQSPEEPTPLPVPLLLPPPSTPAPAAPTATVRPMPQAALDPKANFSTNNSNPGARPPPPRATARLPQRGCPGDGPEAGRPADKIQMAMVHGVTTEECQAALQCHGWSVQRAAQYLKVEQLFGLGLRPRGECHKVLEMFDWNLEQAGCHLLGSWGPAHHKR
Sequence of CSNK2A1 (human) (P68400 whole entry, looked up): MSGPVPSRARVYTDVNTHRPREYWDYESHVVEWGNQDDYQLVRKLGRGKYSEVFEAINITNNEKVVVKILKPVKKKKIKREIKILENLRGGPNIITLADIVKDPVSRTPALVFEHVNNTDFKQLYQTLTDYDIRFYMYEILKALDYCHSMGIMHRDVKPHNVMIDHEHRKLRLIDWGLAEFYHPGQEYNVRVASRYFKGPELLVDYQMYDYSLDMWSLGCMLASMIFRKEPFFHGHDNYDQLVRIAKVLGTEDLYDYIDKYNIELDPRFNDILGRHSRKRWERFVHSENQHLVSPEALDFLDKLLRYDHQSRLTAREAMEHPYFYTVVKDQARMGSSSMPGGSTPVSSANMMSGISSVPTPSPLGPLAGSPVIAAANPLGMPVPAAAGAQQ

CNC(=O)c1cc(Oc2ccc(NC(=O)Nc3ccc(Cl)c(C(F)(F)F)c3)cc2)ccn1
inhibition ([1]; compound 0.02 µM): -0.9%
inhibition ([1]; compound 0.2 µM): 1.1%
inhibition ([2]; compound 0.02 µM): -1.7%
inhibition ([2]; compound 0.2 µM): 22%
inhibition ([3]; compound 0.02 µM): 3.2%
inhibition ([3]; compound 0.2 µM): 11.5%
inhibition ([4]; compound 0.02 µM): -5.5%
inhibition ([4]; compound 0.2 µM): -7%
inhibition ([5]; compound 0.02 µM): -2.8%
inhibition ([5]; compound 0.2 µM): 3.1%
inhibition ([6]; compound 0.02 µM): 97.3%
inhibition ([6]; compound 0.2 µM): 105%
inhibition ([7]; compound 0.02 µM): -4.3%
inhibition ([7]; compound 0.2 µM): -0.2%
inhibition ([8]; compound 0.02 µM): 7.3%
inhibition ([8]; compound 0.2 µM): 48%
inhibition ([9]; compound 0.02 µM): -3.5% and -3.6%
inhibition ([9]; compound 0.2 µM): -1.3% and -2.4%
inhibition ([10]; compound 0.02 µM): -2%
inhibition ([10]; compound 0.2 µM): 0.3%
inhibition ([11]; compound 0.02 µM): -6.9%
inhibition ([11]; compound 0.2 µM): -3%
inhibition ([12]; compound 0.02 µM): -2.5%
inhibition ([12]; compound 0.2 µM): 14.5%
inhibition ([13]; compound 0.02 µM): -5% and -0.3%
inhibition ([13]; compound 0.2 µM): 35.2% and 36.9%
inhibition ([14]; compound 0.02 µM): -4%
inhibition ([14]; compound 0.2 µM): -7.2%
inhibition ([15]; compound 0.02 µM): -3.8%
inhibition ([15]; compound 0.2 µM): 3%
inhibition ([16]; compound 0.02 µM): 32.9%
inhibition ([16]; compound 0.2 µM): 89.8%
inhibition ([17]; compound 0.02 µM): -7%
inhibition ([17]; compound 0.2 µM): 8.1%
inhibition ([18]; compound 0.02 µM): -3.9%
inhibition ([18]; compound 0.2 µM): -2.4%
inhibition ([19]; compound 0.02 µM): -0.4%
inhibition ([19]; compound 0.2 µM): 19%
inhibition ([20]; compound 0.02 µM): -9.3%
inhibition ([20]; compound 0.2 µM): 2.6%
inhibition ([21]; compound 0.02 µM): -6%
inhibition ([21]; compound 0.2 µM): -5.2%
inhibition ([22]; compound 0.02 µM): -7.2%
inhibition ([22]; compound 0.2 µM): -2%
inhibition ([23]; compound 0.02 µM): -5%
inhibition ([23]; compound 0.2 µM): -3.2%
inhibition ([24]; compound 0.02 µM): -3.1%
inhibition ([24]; compound 0.2 µM): -3.7%
inhibition ([25]; compound 0.02 µM): -7.5%
inhibition ([25]; compound 0.2 µM): -6.7%
inhibition ([26]; compound 0.02 µM): -6.2%
inhibition ([26]; compound 0.2 µM): 0.8%
inhibition ([27]; compound 0.02 µM): -4.5%
inhibition ([27]; compound 0.2 µM): -4.7%
inhibition ([28]; compound 0.02 µM): -8%
inhibition ([28]; compound 0.2 µM): 4.4%
inhibition ([29]; compound 0.02 µM): -1.7%
inhibition ([29]; compound 0.2 µM): 0.7%
inhibition ([30]; compound 0.02 µM): -5.7%
inhibition ([30]; compound 0.2 µM): 10.7%
inhibition ([31]; compound 0.02 µM): -3.6%
inhibition ([31]; compound 0.2 µM): 6.4%

Cc1ccc(Nc2nccc(N(C)c3ccc4c(C)n(C)nc4c3)n2)cc1S(N)(=O)=O
inhibition ([1]; compound 0.02 µM): -3.6%
inhibition ([1]; compound 0.2 µM): 1%
inhibition ([2]; compound 0.02 µM): -4.7%
inhibition ([2]; compound 0.2 µM): 0.2%
inhibition ([3]; compound 0.02 µM): 2.6%
inhibition ([3]; compound 0.2 µM): 28.7%
inhibition ([4]; compound 0.02 µM): -1.6%
inhibition ([4]; compound 0.2 µM): -2.2%
inhibition ([5]; compound 0.02 µM): 2.6%
inhibition ([5]; compound 0.2 µM): 27.6%
inhibition ([6]; compound 0.02 µM): 65.6%
inhibition ([6]; compound 0.2 µM): 95.6%
inhibition ([7]; compound 0.02 µM): 6.3%
inhibition ([7]; compound 0.2 µM): 8.4%
inhibition ([8]; compound 0.02 µM): 3.7%
inhibition ([8]; compound 0.2 µM): 22.3%
inhibition ([9]; compound 0.02 µM): -0.1% and -1.7%
inhibition ([9]; compound 0.2 µM): -1.7% and -2.8%
inhibition ([10]; compound 0.02 µM): -3%
inhibition ([10]; compound 0.2 µM): -2.4%
inhibition ([11]; compound 0.02 µM): 0.1%
inhibition ([11]; compound 0.2 µM): 0.3%
inhibition ([13]; compound 0.02 µM): 16.6% and 20.8%
inhibition ([13]; compound 0.2 µM): 62.4% and 63.7%
inhibition ([14]; compound 0.02 µM): -17.4%
inhibition ([14]; compound 0.2 µM): -14.6%
inhibition ([15]; compound 0.02 µM): 1.3%
inhibition ([15]; compound 0.2 µM): 5.7%
inhibition ([16]; compound 0.2 µM): 83%
inhibition ([32]; compound 0.02 µM): 36.7%
inhibition ([32]; compound 0.2 µM): 81.4%
inhibition ([17]; compound 0.02 µM): -4.3%
inhibition ([17]; compound 0.2 µM): 6.6%
inhibition ([18]; compound 0.02 µM): -4.3%
inhibition ([18]; compound 0.2 µM): -2.4%
inhibition ([19]; compound 0.02 µM): 1.8%
inhibition ([19]; compound 0.2 µM): 12.2%
inhibition ([20]; compound 0.02 µM): -4.8%
inhibition ([20]; compound 0.2 µM): -0.7%
inhibition ([21]; compound 0.02 µM): -3.9%
inhibition ([21]; compound 0.2 µM): -9.3%
inhibition ([22]; compound 0.02 µM): 5.5%
inhibition ([22]; compound 0.2 µM): 1.5%
inhibition ([23]; compound 0.02 µM): -5.7%
inhibition ([23]; compound 0.2 µM): -3.6%
inhibition ([24]; compound 0.02 µM): -0.7%
inhibition ([24]; compound 0.2 µM): -2.2%
inhibition ([25]; compound 0.02 µM): -2.5%
inhibition ([25]; compound 0.2 µM): 5.1%
inhibition ([26]; compound 0.02 µM): 7.3%
inhibition ([26]; compound 0.2 µM): 46.6%
inhibition ([27]; compound 0.02 µM): -3.4%
inhibition ([27]; compound 0.2 µM): -7.1%
inhibition ([28]; compound 0.02 µM): 0.9%
inhibition ([28]; compound 0.2 µM): 8%
inhibition ([29]; compound 0.02 µM): 5.5%
inhibition ([29]; compound 0.2 µM): 2%
inhibition ([30]; compound 0.02 µM): 8%
inhibition ([30]; compound 0.2 µM): -10.1%
inhibition ([33]; compound 0.02 µM): 64.2%
inhibition ([33]; compound 0.2 µM): 68.1%
inhibition ([31]; compound 0.02 µM): -11.7%
inhibition ([31]; compound 0.2 µM): 10.4%
